From patent publication US8642341B2, “Materials and methods for gene mediated therapy of psychiatric disorders” (Cornell University, priority 2007, dated 2014)

Experiments:
[1] = tested on: mice; test: mouse tail suspension test (TST); type: in vivo; conditions: mice injected with control vector or no virus
Description: (§1) Two mouse groups (n=10) received bilateral nucleus accumbens injections of AAV-p11-siRNA or control vector. The mouse groups are referenced herein as the “knockdown group” or “control” respectively. Behavioral testing began 6 weeks later, when expression from AAV vectors usually peaks. Behavioral testing included mouse tail suspension test (TST), open filed test, and forced swim test (FST).
(§2) Knockdown and control groups of mice were transfected with AAV-p11-siRNA or control AAV vector, as described in Example 1. An additional control group was not transfected with any virus. The mice were subsequently treated with the antidepressant imipramine.
(§3) The AAV plasmid shown in FIGS. 2 and 3 was used to generate a virus vector, which expresses the p11 gene product and which has the same AAV2 backbone described in Example 1. The resulting virus vector (“AAV-p11,” which is SEQ ID NO: 3) was injected into the nucleus accumbens of normal adult mice.
(§4) Three groups of p11 knockdown mice (as in Example 1) were transfected with no virus, control virus vector, and the AAV-p11 virus vector of Example 3, respectively. Each knockdown transfectant group was compared to a wild-type counterpart group, which was also transfected with no virus, control virus vector, or AAV-p11. All virus transfections involved bilateral injection to the nucleus accumbens.

[2] = tested on: mice; test: forced swim test (FST); type: in vivo, mouse; conditions: mice injected with control vector or no virus
Description: as §1, §2, §3, §4

## CN(C)CCCN1c2ccccc2CCc2ccccc21 [imipramine]
[1]
  immobility on the TST after imipramine: decreased immobility
[2]
  immobility on the FST after imipramine: decreased immobility
